Here are results for 12 compounds from patent publication US20240158391A1, “DERIVATIVES OF 4-(IMIDAZO[1,2-A]PYRIDIN-3-YL)-N-(PYRIDIN-3-YL) PYRIMIDIN-2- AMINE FOR TREATING PROLIFERATIVE DISEASES AND CONDITIONS” (AUCENTRA THERAPEUTICS PTY LTD, priority 2019, published 2024).

The target of one experiment is CDK9/CyclinT1 (Homo sapiens, UniProt P50750). Briefly: ADP Glo kinase assay, CDK9/CyclinT1. The format is biochemical. Conditions: for Ki: CDK9/CyclinT1, Km ATP, read-out: Enzymatic inhibition, Ki, CDK9 T1. As to the method: (§1) Test compounds are used in 1:3 serial dilutions for 10 concentrations (from 10-0.0005 μM) in 0.5% DMSO. […] The kinase reactions are run for optimised time period at room temperature and then the reaction is stopped by adding 5 μL of ADP Glo reagent.
In general terms: In ADP-Glo the light output rises with the ADP produced.

The target of another experiment is CDK2/CyclinA2 (Homo sapiens, UniProt P24941). Briefly: ADP Glo kinase assay, CDK2/CyclinA2. The format is biochemical. Conditions: for Ki: Km ATP, read-out: Enzymatic inhibition, Ki, CDK2 A; for remaining activity at 1 µM: compound at 1 μM, read-out: Residual enzymatic activity (%) at 1 μM, CDK2 A. Here is the method:
as §1

Another experiment has as its target CDK4/CyclinD1 (Homo sapiens, UniProt P11802). Briefly: ADP Glo kinase assay, CDK4/CyclinD1. The format is biochemical. Conditions: for Ki: Km ATP, read-out: Enzymatic inhibition, Ki, CDK4 D1; for remaining activity at 1 µM: compound at 1 μM, read-out: Residual enzymatic activity (%) at 1 μM, CDK4 D1. As to the method:
as §1

A further experiment has as its system MV-4-11. Briefly: Proliferation assay (resazurin, leukemia cell lines), MV-4-11. The format is cell-based. Conditions: Homo sapiens, MV4-11, read-out: 72 h Growth inhibition GI50, MV-4-11 cells. An excerpt:
The following compounds were used as comparators.

The target in the next experiment is CDK1/CyclinB (Homo sapiens, UniProt P06493). Briefly: ADP Glo kinase assay, CDK1/CyclinB. The format is biochemical. Conditions: for Ki: Km ATP, read-out: Enzymatic inhibition, Ki, CDK1 B; for remaining activity at 1 µM: compound at 1 μM, read-out: Residual enzymatic activity (%) at 1 μM, CDK1 B. Here is the method: as §1
The next experiment has as its target T1, FLT3-ITD (Homo sapiens, UniProt P36888).
T1 sequence (P36888 1-993): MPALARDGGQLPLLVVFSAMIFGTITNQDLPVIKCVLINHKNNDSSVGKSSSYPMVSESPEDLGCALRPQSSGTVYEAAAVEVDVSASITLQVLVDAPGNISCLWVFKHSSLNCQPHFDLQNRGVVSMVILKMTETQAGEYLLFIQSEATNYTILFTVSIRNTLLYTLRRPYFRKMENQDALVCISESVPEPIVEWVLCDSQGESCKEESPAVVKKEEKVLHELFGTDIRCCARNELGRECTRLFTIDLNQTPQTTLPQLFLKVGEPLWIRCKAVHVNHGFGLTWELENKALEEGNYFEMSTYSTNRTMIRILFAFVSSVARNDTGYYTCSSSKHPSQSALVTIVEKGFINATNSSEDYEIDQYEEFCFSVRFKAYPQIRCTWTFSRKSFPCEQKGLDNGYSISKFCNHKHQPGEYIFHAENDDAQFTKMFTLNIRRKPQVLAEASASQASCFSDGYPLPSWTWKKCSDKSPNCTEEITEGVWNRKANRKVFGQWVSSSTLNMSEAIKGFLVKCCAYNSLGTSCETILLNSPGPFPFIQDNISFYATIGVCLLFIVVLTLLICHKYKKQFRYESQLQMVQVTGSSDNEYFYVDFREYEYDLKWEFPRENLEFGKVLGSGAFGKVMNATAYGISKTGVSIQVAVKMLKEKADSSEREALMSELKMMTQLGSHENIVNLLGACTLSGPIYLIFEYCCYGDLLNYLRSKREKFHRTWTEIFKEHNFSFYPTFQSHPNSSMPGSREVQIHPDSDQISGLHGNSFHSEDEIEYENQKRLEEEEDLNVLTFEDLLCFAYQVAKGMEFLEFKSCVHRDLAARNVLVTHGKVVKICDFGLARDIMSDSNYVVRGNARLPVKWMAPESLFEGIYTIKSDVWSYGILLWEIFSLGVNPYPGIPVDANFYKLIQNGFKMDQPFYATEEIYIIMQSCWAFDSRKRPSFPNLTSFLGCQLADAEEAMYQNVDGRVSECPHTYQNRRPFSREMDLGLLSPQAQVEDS
Briefly: ADP Glo kinase assay, FLT3-ITD. Conditions: for Ki: Km ATP 100 μM, read-out: Enzymatic inhibition, Ki, FLT3-ITD. The format is biochemical. Here is the method: as §1

The target of a further experiment is CDK6/CyclinD3 (Homo sapiens, UniProt Q00534). Briefly: ADP Glo kinase assay, CDK6/CyclinD3. The format is biochemical. Conditions: for Ki: Km ATP, read-out: Enzymatic inhibition, Ki, CDK6 D3; for remaining activity at 1 µM: compound at 1 μM, read-out: Residual enzymatic activity (%) at 1 μM, CDK6 D3. As to the method: as §1
A further experiment addresses CDK7/CyclinH/Mat1 (Homo sapiens, UniProt P50613). Briefly: ADP Glo kinase assay, CDK7/CyclinH/Mat1. The format is biochemical. Conditions: for remaining activity at 1 µM: compound at 1 μM, read-out: Residual enzymatic activity (%) at 1 μM, CDK7 H. As to the method: as §1

Chain of CDK9/CyclinT1 (P50750 whole entry, species assumed): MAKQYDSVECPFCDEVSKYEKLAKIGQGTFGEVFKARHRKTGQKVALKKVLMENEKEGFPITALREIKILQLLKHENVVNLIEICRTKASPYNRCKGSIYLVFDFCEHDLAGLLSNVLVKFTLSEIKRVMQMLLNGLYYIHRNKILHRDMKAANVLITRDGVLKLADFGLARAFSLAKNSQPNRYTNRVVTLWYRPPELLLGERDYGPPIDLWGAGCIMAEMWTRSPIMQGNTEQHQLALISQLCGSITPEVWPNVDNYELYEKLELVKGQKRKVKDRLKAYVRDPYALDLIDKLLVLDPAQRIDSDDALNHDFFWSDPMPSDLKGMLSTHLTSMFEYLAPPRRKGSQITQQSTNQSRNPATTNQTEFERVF
Chain of CDK9/CyclinT1 (O60563 whole entry partner, species assumed): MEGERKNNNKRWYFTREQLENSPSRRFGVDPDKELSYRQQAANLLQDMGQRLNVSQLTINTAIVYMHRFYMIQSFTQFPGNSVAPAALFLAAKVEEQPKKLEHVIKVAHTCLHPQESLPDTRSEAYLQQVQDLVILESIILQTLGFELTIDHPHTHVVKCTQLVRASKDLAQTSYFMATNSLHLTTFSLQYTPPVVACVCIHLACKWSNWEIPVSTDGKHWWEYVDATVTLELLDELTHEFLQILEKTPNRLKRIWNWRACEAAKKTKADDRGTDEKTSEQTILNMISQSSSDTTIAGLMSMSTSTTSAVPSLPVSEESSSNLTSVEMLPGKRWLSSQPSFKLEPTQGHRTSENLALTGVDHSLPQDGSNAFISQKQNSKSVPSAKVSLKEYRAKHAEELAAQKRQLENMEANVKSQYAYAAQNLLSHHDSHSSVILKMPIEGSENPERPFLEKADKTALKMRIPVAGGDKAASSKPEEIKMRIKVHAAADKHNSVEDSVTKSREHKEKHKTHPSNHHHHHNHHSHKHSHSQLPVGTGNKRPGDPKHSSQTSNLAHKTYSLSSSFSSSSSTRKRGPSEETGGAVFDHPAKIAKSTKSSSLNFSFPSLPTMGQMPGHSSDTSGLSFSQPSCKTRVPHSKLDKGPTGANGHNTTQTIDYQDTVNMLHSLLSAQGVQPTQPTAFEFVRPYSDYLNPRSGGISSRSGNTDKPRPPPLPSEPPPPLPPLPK
Chain of CDK4/CyclinD1 (P11802 whole entry, species assumed): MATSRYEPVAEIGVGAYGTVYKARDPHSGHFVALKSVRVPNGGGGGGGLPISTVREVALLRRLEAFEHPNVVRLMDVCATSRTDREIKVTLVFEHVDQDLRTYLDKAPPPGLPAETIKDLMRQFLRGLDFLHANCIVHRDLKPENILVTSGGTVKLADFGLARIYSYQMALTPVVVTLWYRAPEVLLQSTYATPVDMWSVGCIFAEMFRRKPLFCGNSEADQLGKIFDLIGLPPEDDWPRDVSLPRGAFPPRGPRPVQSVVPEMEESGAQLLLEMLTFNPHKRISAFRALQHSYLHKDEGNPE
Chain of CDK4/CyclinD1 (P24385 whole entry partner, species assumed): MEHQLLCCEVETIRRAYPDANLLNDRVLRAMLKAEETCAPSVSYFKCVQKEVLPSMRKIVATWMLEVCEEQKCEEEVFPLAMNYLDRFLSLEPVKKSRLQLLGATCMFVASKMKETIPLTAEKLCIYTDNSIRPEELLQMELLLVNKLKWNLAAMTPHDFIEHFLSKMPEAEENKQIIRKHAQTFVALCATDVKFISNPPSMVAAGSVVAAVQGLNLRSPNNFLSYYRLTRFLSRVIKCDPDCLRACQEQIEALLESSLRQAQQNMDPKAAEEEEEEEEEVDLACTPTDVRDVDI
Chain of CDK1/CyclinB (P06493 whole entry, species assumed): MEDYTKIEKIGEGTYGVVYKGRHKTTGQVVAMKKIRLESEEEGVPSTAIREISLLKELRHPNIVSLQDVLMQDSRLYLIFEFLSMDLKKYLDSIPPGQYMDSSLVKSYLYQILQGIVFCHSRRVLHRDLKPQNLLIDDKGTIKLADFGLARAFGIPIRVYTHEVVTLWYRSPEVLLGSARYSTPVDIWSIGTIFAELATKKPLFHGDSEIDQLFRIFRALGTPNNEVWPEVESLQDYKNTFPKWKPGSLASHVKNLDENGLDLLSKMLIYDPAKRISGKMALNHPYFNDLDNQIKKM
Chain of CDK1/CyclinB (P14635 whole entry partner, species assumed): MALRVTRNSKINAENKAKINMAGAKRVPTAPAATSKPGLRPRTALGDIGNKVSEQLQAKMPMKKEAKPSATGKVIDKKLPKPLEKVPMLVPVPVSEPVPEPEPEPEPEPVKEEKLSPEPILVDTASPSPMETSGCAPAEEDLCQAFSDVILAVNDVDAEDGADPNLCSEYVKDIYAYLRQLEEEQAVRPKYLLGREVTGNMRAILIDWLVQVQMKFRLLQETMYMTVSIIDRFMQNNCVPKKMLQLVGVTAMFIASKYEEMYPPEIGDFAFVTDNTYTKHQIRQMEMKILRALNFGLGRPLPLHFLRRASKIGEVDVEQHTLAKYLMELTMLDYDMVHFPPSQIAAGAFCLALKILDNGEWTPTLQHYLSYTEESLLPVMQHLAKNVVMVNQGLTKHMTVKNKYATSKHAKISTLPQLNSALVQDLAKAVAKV
Chain of CDK7/CyclinH/Mat1 (P50613 whole entry, species assumed): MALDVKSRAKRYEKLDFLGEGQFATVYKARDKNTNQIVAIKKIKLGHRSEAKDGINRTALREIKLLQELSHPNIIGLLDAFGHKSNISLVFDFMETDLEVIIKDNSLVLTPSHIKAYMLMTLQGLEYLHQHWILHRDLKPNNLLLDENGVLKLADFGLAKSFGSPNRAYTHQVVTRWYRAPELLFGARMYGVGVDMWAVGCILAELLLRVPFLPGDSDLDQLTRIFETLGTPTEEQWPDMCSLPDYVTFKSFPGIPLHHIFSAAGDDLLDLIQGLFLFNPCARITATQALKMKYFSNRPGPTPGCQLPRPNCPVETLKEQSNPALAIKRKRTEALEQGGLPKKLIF
Chain of CDK7/CyclinH/Mat1 (P51946 whole entry partner, species assumed): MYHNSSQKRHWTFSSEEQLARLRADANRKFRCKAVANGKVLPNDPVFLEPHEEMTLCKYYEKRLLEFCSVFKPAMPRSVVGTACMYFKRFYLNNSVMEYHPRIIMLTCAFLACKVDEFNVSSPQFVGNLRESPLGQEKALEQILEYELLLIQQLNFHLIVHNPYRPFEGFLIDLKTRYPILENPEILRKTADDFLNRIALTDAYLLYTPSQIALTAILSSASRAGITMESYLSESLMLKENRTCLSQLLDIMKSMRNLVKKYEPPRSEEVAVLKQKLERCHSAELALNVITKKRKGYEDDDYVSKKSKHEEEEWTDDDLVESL
Chain of CDK7/CyclinH/Mat1 (P51948 whole entry partner, species assumed): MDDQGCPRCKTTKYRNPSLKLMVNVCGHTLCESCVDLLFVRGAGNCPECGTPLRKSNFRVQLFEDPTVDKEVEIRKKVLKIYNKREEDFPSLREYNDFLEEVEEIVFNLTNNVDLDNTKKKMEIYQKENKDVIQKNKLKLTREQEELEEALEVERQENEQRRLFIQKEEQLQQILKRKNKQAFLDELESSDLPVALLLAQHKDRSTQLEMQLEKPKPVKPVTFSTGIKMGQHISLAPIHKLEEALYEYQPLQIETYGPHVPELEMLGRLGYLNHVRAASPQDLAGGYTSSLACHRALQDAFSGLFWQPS
Chain of CDK6/CyclinD3 (Q00534 whole entry, species assumed): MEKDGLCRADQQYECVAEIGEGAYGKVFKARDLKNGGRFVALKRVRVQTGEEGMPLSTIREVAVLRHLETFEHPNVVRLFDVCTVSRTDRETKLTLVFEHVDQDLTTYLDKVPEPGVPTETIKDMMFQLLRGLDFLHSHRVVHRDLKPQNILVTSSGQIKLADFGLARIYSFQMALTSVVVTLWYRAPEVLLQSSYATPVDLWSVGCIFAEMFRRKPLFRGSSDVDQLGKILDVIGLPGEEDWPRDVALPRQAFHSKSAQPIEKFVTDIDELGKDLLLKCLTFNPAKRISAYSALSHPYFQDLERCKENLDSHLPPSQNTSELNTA
Chain of CDK6/CyclinD3 (P30281 whole entry partner, species assumed): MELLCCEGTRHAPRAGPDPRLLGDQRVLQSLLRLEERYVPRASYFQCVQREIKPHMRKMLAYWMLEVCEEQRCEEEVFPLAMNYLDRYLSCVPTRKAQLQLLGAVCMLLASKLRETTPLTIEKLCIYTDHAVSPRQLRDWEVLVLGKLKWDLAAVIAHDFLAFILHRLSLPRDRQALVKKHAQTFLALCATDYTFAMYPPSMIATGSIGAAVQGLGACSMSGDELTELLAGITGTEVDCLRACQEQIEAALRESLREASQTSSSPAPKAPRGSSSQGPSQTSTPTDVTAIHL

Consider `CN1CCN(c2ccc(Nc3nccc(-c4cnc5ccc(-c6cnn(C)c6)cn45)n3)cn2)CC1` [Compound 9, 4-(6-(1-Methyl-1H-pyrazol-4-yl)imidazo[1,2-a]pyridin-3-yl)-N-(6-(4-methylpiperazin-1-yl)pyridin-3-yl)pyrimidin-2-amine], for which the Ki is 2 nM at CDK9/CyclinT1; 1030 nM on CDK2/CyclinA2; over 500 nM at CDK4/CyclinD1; 645 nM on CDK1/CyclinB; 15 nM at FLT3-ITD. On CDK9/CyclinT1 (compared with comparator compounds A, B and C (N-(pyridin-2-yl)pyrimidin-2-amine moiety)), the “inhibition of CDK9 (in words)” value is “dramatically and surprisingly increased the potency of inhibition of CDK9”. Also, the GI50 with MV-4-11 worked out at 10 nM.
As for `CS(=O)(=O)N1CCN(c2ccc(Nc3nccc(-c4cnc5ccc(Br)cn45)n3)cn2)CC1` [Compound 16, 4-(6-Bromoimidazo[1,2-a]pyridin-3-yl)-N-(6-(4-(methylsulfonyl)piperazin-1-yl)pyridin-3-yl)pyrimidin-2-amine], the inhibitory constant (Ki) on CDK6/CyclinD3 worked out at 2090 nM; on CDK9/CyclinT1, 77 nM; at CDK2/CyclinA2, 124 nM; on CDK4/CyclinD1 it was 718 nM; at CDK1/CyclinB, 153 nM; on FLT3-ITD it was 7 nM. In the experiment with MV-4-11, the concentration for 50% growth inhibition (GI50) turned out to be 10 nM.
With `CN1CCN(c2ccc(Nc3nccc(-c4cnc5ccc(-c6cnc(N)nc6)cn45)n3)cn2)CC1` [Compound 23, 4-(6-(2-Aminopyrimidin-5-yl)imidazo[1,2-a]pyridin-3-yl)-N-(6-(4-methylpiperazin-1-yl)pyridin-3-yl)pyrimidin-2-amine], the remaining activity at 1 µM at CDK6/CyclinD3 is 46%; at CDK2/CyclinA2 it was 26%; at CDK4/CyclinD1 it was 72%; at CDK1/CyclinB, 67%. Also, the results for the Ki at CDK9/CyclinT1 and at FLT3-ITD were 20 nM and 23 nM, respectively. Moreover, in the experiment with MV-4-11, the concentration for 50% growth inhibition (GI50) was found to be 181 nM.
As to `CN1CCN(c2ccc(Nc3nccc(-c4cnc5ccc(-c6cn[nH]c6)cn45)n3)cn2)CC1` [Compound 24, 4-(6-(1H-Pyrazol-4-yl)imidazo[1,2-a]pyridin-3-yl)-N-(6-(4-methylpiperazin-1-yl)pyridin-3-yl)pyrimidin-2-amine], the inhibitory constant (Ki) was determined as 4 nM on CDK9/CyclinT1, 42 nM at CDK2/CyclinA2, 29 nM at CDK1/CyclinB and 8 nM at FLT3-ITD. Also, at CDK4/CyclinD1, the remaining activity at 1 µM turned out to be 21%. The 50% growth inhibitory concentration (GI50) in the experiment with MV-4-11 is 33 nM.
For `Cc1ccc2ncc(-c3ccnc(Nc4ccc(N5CCN(C)CC5)nc4)n3)n2c1` [Compound 35, 4-(6-Methylimidazo[1,2-a]pyridin-3-yl)-N-(6-(4-methylpiperazin-1-yl)pyridin-3-yl)pyrimidin-2-amine], the inhibitory constant (Ki) at CDK9/CyclinT1 was found to be 4 nM; at CDK2/CyclinA2, 15 nM; on CDK7/CyclinH/Mat1 (Km ATP, read-out: Enzymatic inhibition, Ki, CDK7 H) it was 84 nM; at CDK4/CyclinD1 it was 34 nM; on CDK1/CyclinB it was 48 nM; at FLT3-ITD, 16 nM. The GI50 with MV-4-11 turned out to be 4 nM.
In the case of `CC(C)N1CCN(c2ccc(Nc3nccc(-c4cnc5ccc(Br)cn45)n3)cn2)CC1` [Compound 38, 4-(6-Bromoimidazo[1,2-a]pyridin-3-yl)-N-(6-(4-isopropylpiperazin-1-yl)pyridin-3-yl)pyrimidin-2-amine], the inhibitory constant (Ki) at CDK6/CyclinD3 stood at 295 nM; at CDK9/CyclinT1, 10 nM; on CDK2/CyclinA2, 44 nM; on CDK4/CyclinD1, 49 nM; at CDK1/CyclinB, 145 nM; on FLT3-ITD it was 10 nM. For the same compound, the 50% growth inhibitory concentration (GI50) in the experiment on MV-4-11 was 39 nM.
In the case of `CN(C)c1ccc(Nc2nccc(-c3cnc4ccc(C5=CCN(C(=O)OC(C)(C)C)CC5)cn34)n2)cn1` [Compound 67, Tert-butyl 4-(3-(2-((6-(dimethylamino)pyridin-3-yl)amino)pyrimidin-4-yl)imidazo[1,2-a]pyridin-6-yl)-3,6-dihydropyridine-1(2H)-carboxylate], the remaining activity at 1 µM at CDK6/CyclinD3 worked out at 78%; on CDK2/CyclinA2, 93%; on CDK7/CyclinH/Mat1 it was 68%; at CDK1/CyclinB it was 67%. Also, the Ki on CDK9/CyclinT1 was 1630 nM; at FLT3-ITD, over 500 nM. Further, in the experiment on MV-4-11, the GI50 turned out to be 362 nM.
As for `CN(C)c1ccc(Nc2nccc(-c3cnc4ccc(-c5ccc(F)nc5)cn34)n2)cn1` [Compound 68, N^5-(4-(6-(6-Fluoropyridin-3-yl)imidazo[1,2-a]pyridin-3-yl)pyrimidin-2-yl)-N^2,N^2-dimethylpyridine-2,5-diamine], the remaining activity at 1 µM at CDK6/CyclinD3 was 81%; on CDK2/CyclinA2 it was 61%; on CDK7/CyclinH/Mat1 it was 71%; at CDK1/CyclinB it was 37%. For the same compound, the inhibitory constant (Ki) at CDK9/CyclinT1 was determined as 174 nM; at FLT3-ITD, 62 nM. In addition, the GI50 with MV-4-11 was found to be 13 nM.
Take `CN(C)c1ccc(Nc2nccc(-c3cnc4ccc(C5=CCNCC5)cn34)n2)cn1` [Compound 69, N^2,N^2-Dimethyl-N^5-(4-(6-(1,2,3,6-tetrahydropyridin-4-yl)imidazo[1,2-a]pyridin-3-yl)pyrimidin-2-yl)pyridine-2,5-diamine]: the remaining activity at 1 µM turned out to be 81% at CDK6/CyclinD3 and 65% on CDK7/CyclinH/Mat1. The inhibition constant (Ki) at CDK9/CyclinT1 was 16 nM; at CDK2/CyclinA2, 82 nM; at CDK1/CyclinB, 116 nM. Also, the GI50 in the experiment with MV-4-11 is 152 nM. Further, the “Residual enzymatic activity (%) at 1 μM, FLT3-ITD” value on FLT3-ITD (compound at 1 μM) is 30%.
Regarding `CN1CCN(c2ccc(Nc3nccc(-c4cnc5ccc(-c6cnn(C(F)F)c6)cn45)n3)cn2)CC1` [Compound 70, 4-(6-(1-(Difluoromethyl)-1H-pyrazol-4-yl)imidazo[1,2-a]pyridin-3-yl)-N-(6-(4-methylpiperazin-1-yl)pyridin-3-yl)pyrimidin-2-amine], the remaining activity at 1 µM was 57% on CDK6/CyclinD3, 55% on CDK2/CyclinA2, 40% on CDK7/CyclinH/Mat1 and 32% on CDK1/CyclinB. Besides, the inhibitory constant (Ki) stood at 7 nM at CDK9/CyclinT1 and 12 nM on FLT3-ITD. Further, the GI50 with MV-4-11 amounted to 8 nM.
Consider `O=C1NCCC12CCN(c1ccc(Nc3nccc(-c4cnc5ccc(Br)cn45)n3)cn1)CC2` [Compound 71, 8-(5-((4-(6-Bromoimidazo[1,2-a]pyridin-3-yl)pyrimidin-2-yl)amino)pyridin-2-yl)-2,8-diazaspiro[4.5]decan-1-one], for which the remaining activity at 1 µM at CDK6/CyclinD3 was 97%; on CDK2/CyclinA2, 74%; on CDK7/CyclinH/Mat1, 91%; at CDK1/CyclinB, 95%. Further, the inhibitory constant (Ki) on CDK9/CyclinT1 was over 500 nM; at FLT3-ITD, 24 nM. Further, in the experiment with MV-4-11, the 50% growth inhibitory concentration (GI50) came out at 12 nM.
For the compound `O=C1NCCC12CCN(c1ccc(Nc3nccc(-c4cnc5ccc(-c6ccccc6)cn45)n3)cn1)CC2` [Compound 72, 8-(5-((4-(6-Phenylimidazo[1,2-a]pyridin-3-yl)pyrimidin-2-yl)amino)pyridin-2-yl)-2,8-diazaspiro[4.5]decan-1-one], the remaining activity at 1 µM at CDK6/CyclinD3 is 73%; at CDK2/CyclinA2, 64%; on CDK7/CyclinH/Mat1 it was 59%; on CDK1/CyclinB, 75%. Besides, the Ki on CDK9/CyclinT1 is over 500 nM; at FLT3-ITD it was 55 nM. The GI50 in the experiment on MV-4-11 came out at 5 nM.

The term Ki denotes the equilibrium dissociation constant of an inhibitor or competing ligand from its target. For orientation: GI50 means the concentration that inhibits growth by half.
